According to patent publication US7901906B2, “Targeting of MKRN1 for identifying cancer treatment agents” (University of Central Florida Research Foundation, Inc., priority 2006, dated 2011):
Non-standard residues stand in square brackets, D forms with d. Residues, ends and D or L forms follow the SMILES beside them. *: point of attachment. Nle = CCCC[C@H](N)C(=O)O; Cbz = O=C(OCc1ccccc1)*

Tested on: hTERT
Assay: hTERT protein levels by immunoblotting in H1299 cells
Format: cell-based, human
Procedure: FIG. 1. hTERT is sensitive to the Hsp90 antagonist geldanamycin. (A) Down-regulation of ectopically expressed hTERT by GA. H1299 cells transfected with Flag-hTERT or Flag-TRF1 were treated with 0.1 μM GA for the indicated times. Lysates were resolved on 8% SDS-PAGE and analyzed by immunoblotting using an anti-Flag antibody probe. Cells were pretreated with 10 μM MG132 or E-64 for 2 hours, either alone or before treatment with GA. (B) Concentration dependence of GA on hTERT. H1299 cells transfected with Flag-hTERT or hTERT-HA were treated for 2 hours with the GA concentration indicated. The hTERT polypeptides were visualized with anti-Flag or anti-HA antibodies as marked by each blot. (C) Down-regulation of endogenous hTERT by GA. H1299 cells were treated with 0.1 μM GA for the indicated times, and cell lysates were analyzed by immunoprecipitation with anti-hTERT antibody followed by immunoblotting using same antibody probe. Cells were pretreated with 10 μM MG132 for 2 hours, either alone or before treatment with GA. Molecular weight markers are shown in kilodaltons. (D) H1299 cells were treated with 0.1 μM GA for the indicated times, and cell lysates were analyzed for telomerase activity by the TRAP assay. The lane labeled LB corresponds to the negative control (lysis buffer only). ITAS represents the internal telomerase assay standard. (E) Saos-2 cells transfected with Flag-hTERT or hTERT-HA or empty vector were untreated or treated with 0.1 μM GA for 16 hours, and cell lysates were analyzed for telomerase activity using the TRAP assay.
FIG. 2. hTERT is ubiquitinated prior to proteasome-mediated degradation. (A) H1299 cells were co-transfected with Flag-hTERT and HA-ubiquitin. Cells were either untreated or treated for 2 hours with 10 μg/ml ALLnN or 0.1 μM GA, or a combination of the two as specified above each lane. Immunoprecipitation was performed with anti-Flag antibody before probing with anti-hTERT or anti-HA antibodies as indicated besides each blot. Molecular weight markers are shown in kilodaltons. (B) H1299 cells co-transfected with Flag-hTERT and HA-ubiquitin were treated for 1 hour with the GA concentration indicated in the presence of 10 μM MG132. Immunoprecipitation was performed with anti-Flag antibody followed by immunoblotting using an anti-HA antibody probe. (C) H1299 cells co-transfected with Flag-hTERT and HA-ubiquitin were either untreated or treated for 2 hours with 10 μg/ml ALLnN as specified above each lane. Proteins were immunoprecipated with anti-Flag antibody followed by immunoblotting using an anti-HA antibody probe.
The human lung carcinoma cell line H1299 was cultured in RPMI-1640 medium, and the human fibrosarcoma cell line HT1080 was cultured in Dulbecco's modified Eagle's medium supplemented with 10% fetal bovine serum, 100 units/ml penicillin, and 100 μg/ml streptomycin in 5% CO2 at 37° C. The human osteosarcoma cell line Saos-2 was maintained in McCoy's 5A medium containing 15% fetal bovine serum, 100 units/ml penicillin, and 100 μg/ml streptomycin. To establish cell lines stably expressing MKRN1, the MKRN1-V5 construct was transfected into HT1080 cells using Lipofectamine Plus (Invitrogen, Carlsbad, Calif.) according to the manufacturer's instructions. As a control, HT1080 cells were also stably transfected with an empty vector. Multiple independent single clones were isolated and checked for protein expression by immunoblotting with anti-V5 antibody.
H1299 cells were transiently transfected with the expression vectors indicated in the figure legends using TransFast transfection reagent (Promega, Madison, Wis.) according to the manufacturer's instructions. Cells were lysed with buffer containing 0.5% NP-40, 50 mM Tris-HCl (pH 7.5), 150 mM NaCl, 2 mM phenyl methylsulphonyl fluoride. […]

| Structure (SMILES) | effect on GA-induced decrease of hTERT levels (H1299 Flag-hTERT and HA-ubiquitin, 10 μg/ml ALLnN plus 0.1 μM GA, 2 hours) | hTERT levels (H1299 co-transfected with Flag-hTERT and HA-ubiquitin, 2 hours, single agent (0.1 μM GA or 10 μg/ml ALLnN)) | effect on GA-induced degradation of endogenous hTERT (H1299, 10 μM MG132 pretreatment 2 hours before GA) | effect on GA-induced down-regulation of hTERT (H1299 Flag-hTERT, 10 μM pretreatment 2 hours, then GA 4 hours) | hTERT expression levels, inhibitor alone (H1299 Flag-hTERT, 10 μM, absence of GA, relative to untreated controls) |
| --- | --- | --- | --- | --- | --- |
| CCCC[C@@H](C=O)NC(=O)[C@H](CC(C)C)NC(=O)[C@H](CC(C)C)NC(C)=O [ALLnN] (Ac-Leu-Leu-[Nle]-aldehyde) | reversed this trend | did not affect |  |  |  |
| CC(C)C[C@@H](C=O)NC(=O)[C@H](CC(C)C)NC(=O)[C@H](CC(C)C)NC(=O)OCc1ccccc1 [MG132] (Cbz-Leu-Leu-Leu-aldehyde) |  |  | rescued | rescued | did not cause a significant change |
